In patent publication US20250154121A1, “CYCLIC(ALKYL)(AMINO)ALKOXY-SUBSTITUTED ARYL-PYRONE COMPOUND AND USE THEREOF” (priority 2022, published 2025):
Where two headings read alike, the source gives them in different places.

Key:
[1] = test system: human coronavirus OC43; format: in vivo; details: Table 6 (Example 17); 90 mg/kg/d gavage for 4 days
[2] = test system: Human Coronavirus 229E (HCoV-229E); assay: animal or person; format: in vivo
[3] = test system: Influenza A (H1N1) virus PR8 strain; assay: Mouse pneumonia model infected with influenza A (H1N1) virus PR8 strain (lung index); format: in vivo, ICR mice
Protocol: (§1) ICR mice were taken and randomly divided by weight class: normal control group, model control group, oseltamivir control group, compound 4, compound F4, compound F5, compound 5, and compound 7 according to their weight class, and each drug was given in two dosage groups (10 mice in each group). Except for the normal control group, mice were slightly anesthetized with ether and infected with 15 LD50 H1N1 influenza virus liquid (FM1/PR8 strain) by nasal drops (30 μl per each animal). The administration was started on the day of infection at 0.2 ml/10 g by gavage each time once a day for 4 days, and the normal control and model control groups were gavaged with distilled water under the same conditions. The mice were weighed and dissected on Day 5, and lung was weighed to calculate lung index and lung index inhibition. The results were statistically processed using t-test for comparison between groups.
(§2) ICR mice were taken and randomly divided into 9 groups according to the body weight: a normal control group, model control group, oseltamivir control group, and two dosage groups of Compound 9, Compound 12 and Compound 2, 10 mice in each group. Except the normal control group, mice were slightly anesthetized with ether and infected with 15 LD50 H1N1/PR8 influenza virus liquid by nasal drops at 30 μl per mouse. The administration was started on the day of infection, at 0.2 ml/10 g each time by gavage once a day for 4 days, and the normal control and model control groups were gavaged with distilled water under the same conditions. The mice were weighed and dissected on Day 5, and lungs were weighed to calculate lung index and lung index inhibition. The results were statistically processed using t-test for comparison between groups.

[4] = test system: Sendai strain of parainfluenza virus; format: in vivo
[5] = test system: Influenza A (H1N1) virus FM1 strain; assay: Mouse pneumonia model infected with influenza A (H1N1) virus FM1 strain (lung index); format: in vivo, ICR mice
Protocol: ICR mice were taken and randomly divided into: normal control group, model control group, ribavirin control group, compound 4, compound F1, compound F2, and compound F3 according to their weight class, and each drug was given in two dosage groups (10 mice in each group). Except for the normal control group, mice were slightly anesthetized with ether and infected with 15 LD50 H1N1 influenza virus liquid FM1 strain by nasal drops (30 μl per animal). The administration was started on the day of infection at 0.2 ml/10 g by gavage each time once a day for 4 days, and the normal control and model control groups were gavaged with distilled water under the same conditions. The mice were weighed and dissected on Day 5, and the lung was weighed to calculate lung index and lung index inhibition. The results were statistically processed using t-test for comparison between groups.
as §1, §2

[6] = Acute toxicity test in mice (single gavage, 14-day observation); format: in vivo
Protocol: Seventy ICR mice, weighing 17-21 g, were randomly divided into 7 groups according to fasting body weight: a normal control group and 6 dose groups of 475, 633, 844, 1125, 1500 and 2000 mg of the test drug (compound 4)/kg, 10 mice in each group, 50/50 male and female. After fasting for about 15 h, each dosing group was administered once by gavage in a volume of 40 ml/kg, and the control group was gavaged with an equal volume of 0.5% sodium carboxymethylcellulose solution once/day, and the animals were observed continuously for 14 days after administration of the drug to observe the death of the animals.
Thirty ICR mice, weighing 17-21 g, were randomly divided into three groups according to their fasting body weight: a normal control group and 2000 mg and 4000 mg of test drug (Compound 12)/kg dose group, 10 mice in each group, 50/50 male and female. After fasting for about 15 h, each dosing group was given the drug once by gavage in a volume of 40 ml/kg, and the control group was given an equal volume of 0.5% sodium carboxymethylcellulose solution by gavage once/day, and the deaths of the animals were observed continuously for 14 days after the administration of the drug.

[7] = Table 12 (Example 25), 7.5 mg/kg/d gavage for 4 days
[8] = Table 12 (Example 25), 15 mg/kg/d gavage for 4 days
[9] = Table 11 (Example 24), 7.5 mg/kg/d gavage for 4 days
[10] = Table 11 (Example 24), 15 mg/kg/d gavage for 4 days
[11] = Table 13 (Example 25), 7.5 mg/kg/d gavage for 4 days
[12] = Table 13 (Example 25), 15 mg/kg/d gavage for 4 days
[13] = Human coronavirus 229E, in Mus musculus, po, 96 h, Table 10 (Example 23), 7.5 mg/kg/d gavage for 4 days, read-out: inhibition rate (%)
[14] = Table 10 (Example 23), 7.5 mg/kg/d gavage for 4 days
[15] = Table 3 (Example 14), 27.5 mg/kg gavage once a day for 4 days
[16] = Table 12 (Example 25), 27.5 mg/kg/d gavage for 4 days
[17] = Table 13 (Example 25), 27.5 mg/kg/d gavage for 4 days
[18] = Table 7 (Example 18), 82.5 mg/kg/d gavage for 4 days
[19] = Table 11 (Example 24), 82.5 mg/kg/d gavage for 4 days

| SMILES | inhibition rate % [3, 7] | lung index [3, 7] | inhibition rate % [3, 8] | lung index [3, 8] | inhibition rate % [4, 9] | lung index [4, 9] | inhibition rate % [4, 10] | lung index [4, 10] | inhibition rate % [5, 11] | lung index [5, 11] | inhibition rate % [5, 12] | lung index [5, 12] | inhibition in vivo at 7.5 mg/kg/day [2, 13] | lung index [2, 14] | also measured |
| --- | --- | --- | --- | --- | --- | --- | --- | --- | --- | --- | --- | --- | --- | --- | --- |
| CCN(CC)CCCC(C)Nc1ccnc2cc(Cl)ccc12 (stereo not drawn) [Chloroquine, chloroquine phosphate, reference compound] | – | – | – | – | – | – | – | – | – | – | – | – | – | – | inhibition rate % [1]: 42.72%; lung index [1]: 0.80 ± 0.05 g lung weight × 100/g body weight; inhibition in vivo at 90 mg/kg/day ([2]; Human coronavirus 229E, in Mus musculus, po, 96 h, read-out: inhibition rate (%), Table 4 (Example 15), 90 mg/kg/d gavage for 4 days): 31.3%; inhibition in vivo at 90 mg/kg/day ([2]; Human coronavirus 229E, in Mus musculus, po, 96 h, read-out: inhibition rate (%), Table 5 (Example 16), 90 mg/kg/d gavage for 4 days): 56.2%; inhibition in vivo at 90 mg/kg/day ([2]; Human coronavirus 229E, in Mus musculus, po, 96 h, read-out: inhibition rate (%), Table 10 (Example 23), 90 mg/kg/d gavage for 4 days): 52.9%; inhibition in vivo at 90 mg/kg/day ([2]; Human coronavirus 229E, in Mus musculus, po, 96 h, read-out: inhibition rate (%), Table 14 (Example 26), 90 mg/kg/d gavage for 4 days): 62.8%; lung index ([2]; Table 4 (Example 15), 90 mg/kg/d gavage for 4 days): 0.78 ± 0.04 g lung weight × 100/g body weight; lung index ([2]; Table 5 (Example 16), 90 mg/kg/d gavage for 4 days): 0.70 ± 0.04 g lung weight × 100/g body weight; lung index ([2]; Table 10 (Example 23), 90 mg/kg/d gavage for 4 days): 0.80 ± 0.02 g lung weight × 100/g body weight; lung index ([2]; Table 14 (Example 26), 90 mg/kg/d gavage for 4 days): 0.83 ± 0.05 g lung weight × 100/g body weight |
| COc1ccc(-c2coc3cc(OCCNC4CC4)ccc3c2=O)cc1 [Compound 2] | 99.05% | 0.70 ± 0.110 Lung weight * 100/body weight | 60.90% | 0.74 ± 0.091 Lung weight * 100/body weight | −18.32% | 0.86 ± 0.04 Lung weight * 100/body weight | 3.27% | 0.84 ± 0.07 Lung weight * 100/body weight | 26.60% | 0.77 ± 0.074 Lung weight * 100/body weight | 72.90% | 0.73 ± 0.060 Lung weight * 100/body weight | – | – | – |
| CN(CCOc1ccc2c(=O)c(-c3ccccc3)coc2c1)C1CC1 [Compound 9] | 58.71% | 0.74 ± 0.046 Lung weight * 100/body weight | 91.64% | 0.71 ± 0.060 Lung weight * 100/body weight | 40.51% | 0.79 ± 0.05 Lung weight * 100/body weight | 55.59% | 0.77 ± 0.05 Lung weight * 100/body weight | 79.57% | 0.72 ± 0.069 Lung weight * 100/body weight | 84.63% | 0.71 ± 0.052 Lung weight * 100/body weight | 46.5% | 0.81 ± 0.10 g lung weight × 100/g body weight | – |
| CC(=O)N(CCOc1ccc2c(=O)c(-c3ccccc3)coc2c1)C1CC1 [Compound 10] | – | – | – | – | 7.43% | 0.83 ± 0.06 Lung weight * 100/body weight | −16.30% | 0.86 ± 0.05 Lung weight * 100/body weight | – | – | – | – | 25.6% | 0.85 ± 0.06 g lung weight × 100/g body weight | – |
| CCC(=O)N(CCOc1ccc2c(=O)c(-c3ccccc3)coc2c1)C1CC1 [Compound 11] | – | – | – | – | −20.73% | 0.87 ± 0.04 Lung weight * 100/body weight | 6.19% | 0.83 ± 0.05 Lung weight * 100/body weight | – | – | – | – | 14.1% | 0.87 ± 0.08 g lung weight × 100/g body weight | – |
| CC(C)N(CCOc1ccc2c(=O)c(-c3ccccc3)coc2c1)C1CC1 [Compound 12] | 63.78% | 0.74 ± 0.091 Lung weight * 100/body weight | 76.54% | 0.72 ± 0.076 Lung weight * 100/body weight | 57.49% | 0.77 ± 0.04 Lung weight * 100/body weight | 61.91% | 0.76 ± 0.03 Lung weight * 100/body weight | 70.82% | 0.73 ± 0.070 Lung weight * 100/body weight | 93.59% | 0.71 ± 0.042 Lung weight * 100/body weight | – | – | animal deaths ([6]; 2000 and 4000 mg of the drug/kg single gavage, 14 days observation): No animals died; maximum concentration that could be administered by gavage, with no death of the animals ([6]; acute toxicity, mice): 4000 mg/kg; inhibition in vivo at 7.5 mg/kg/day ([2]; Human coronavirus 229E, in Mus musculus, po, 96 h, Table 14 (Example 26), 7.5 mg/kg/d gavage for 4 days, read-out: inhibition rate (%)): 39.8%; inhibition in vivo at 15 mg/kg/day ([2]; Human coronavirus 229E, in Mus musculus, po, 96 h, Table 14 (Example 26), 15 mg/kg/d gavage for 4 days, read-out: inhibition rate (%)): 68.4%; lung index ([2]; Table 14 (Example 26), 7.5 mg/kg/d gavage for 4 days): 0.86 ± 0.04 g lung weight × 100/g body weight; lung index ([2]; Table 14 (Example 26), 15 mg/kg/d gavage for 4 days): 0.82 ± 0.07 g lung weight × 100/g body weight |
| CCOC(=O)C1=C[C@@H](OC(CC)CC)[C@H](NC(C)=O)[C@@H](N)C1 [Oseltamivir, Oseltamivir phosphate, reference compound] | – | – | – | – | – | – | – | – | – | – | – | – | – | – | inhibition rate % [3, 15]: 58.89%; inhibition rate % [3, 16]: 88.97%; lung index [3, 16]: 0.71 ± 0.069 Lung weight * 100/body weight; inhibition in vivo at 27.5 mg/kg ([5]; Influenza A virus, H1N1, po, 96 h, Table 2 (Example 14), 27.5 mg/kg gavage once a day for 4 days, read-out: inhibition rate (%)): 62.1%; lung index ([5]; Table 2 (Example 14), 27.5 mg/kg gavage once a day for 4 days): 0.86 ± 0.21; inhibition rate % [5, 17]: 64.57%; lung index [5, 17]: 0.74 ± 0.065 Lung weight * 100/body weight |
| NC(=O)c1ncn([C@@H]2O[C@H](CO)[C@@H](O)[C@H]2O)n1 [Ribavirin, ribavirin, reference compound] | – | – | – | – | – | – | – | – | – | – | – | – | – | – | inhibition rate % [3, 15]: 58.89%; lung index [3, 15]: 0.84 ± 0.10; inhibition rate % [4, 18]: 42.06%; lung index [4, 18]: 0.70 ± 0.03 lung weight/100 g body weight; inhibition rate % [4, 19]: 57.66%; lung index [4, 19]: 0.77 ± 0.04 Lung weight * 100/body weight; inhibition in vivo at 82.5 mg/kg ([5]; Influenza A virus, H1N1, po, 96 h, Table 1 (Example 13), 82.5 mg/kg gavage once a day for 4 days, read-out: inhibition rate (%)): 49.6%; lung index ([5]; Table 1 (Example 13), 82.5 mg/kg gavage once a day for 4 days): 0.96 ± 0.16 |
